Laboratory results reported in PMC6295574, “Molecular and Functional Characterization of Odorant Binding Protein 7 From the Oriental Fruit Moth Grapholita molesta (Busck) (Lepidoptera: Tortricidae)” (Frontiers in Physiology, 2018).
“Also recorded” adds a separate entry of the source. Like-named read-outs stand apart in the source and are kept apart here.

Columns and labels:
[1] = biological target: T1, rGmolOBP7 (recombinant GmolOBP7) (Grapholita molesta, UniProt A0A2R4SBC1); test: biochemical; type: binding; conditions: for binding to rGmolOBP7 (in words): competitive binding, 1-NPN probe
Description: (§1) Fluorescence intensity was detected on a spectrophotofluorometer (F-4500, Hitachi, Japan) at room temperature using a quartz cuvette with a 1 cm light path. The silt width of excitation and emissions were all 10 nm. The fluorescence probe 1-NPN was excited at 337 nm and the emission spectra were recorded between 370 and 550 nm. Four sex pheromone components and 31 volatiles, derived from peach shoots and pear fruits, were selected for binding assays (Table 2). The probe 1-NPN and tested ligands were all dissolved in spectrophotometric-grade methanol to obtain a 1 mM stock solution.
The corresponding florescence intensity values were collected as three independent measurements. The binding constant (K1−NPN) of 1-NPN to rGmolOBP7 was calculated using GraphPad Prism 5 software (GraphPad Software, Inc.) via nonlinear regression for a unique site of binding.

[2] = test system: male antennae of G. molesta; parameters: method as in Cardé et al., 1975, 1979; conditions: ref Cardé et al., 1975, 1979; cited from earlier work
[3] = test system: Grapholita molesta antennae; test: EAG responses of GmolOBP7-dsRNA-injected moths to stimulants; conditions: stimulant 10 mg/mL in liquid paraffin; for EAG response of dsGmolOBP7-injected male moths vs dsGFP-injected and non-injected controls: 1-day-old males; for EAG response of dsRNA-treated moths vs non-injected control: male and female moths, 1-day-old
Description: Based on the expression patterns observed at different insect stages, 5-day-old G. molesta pupae (later-pupae) were selected to receive a dsRNA microinjection. The conjunctivum between the prothorax and mesothorax, the conjunctivum between the mesothorax and metathorax and the conjunctivum between the thorax and abdomen were initially selected as putative injection sites. Then, 39, 69, and 138 nL of RNase-free H2O were injected into different conjunctiva, respectively. A total of 69 nL (approximately 241.5 ng dsRNA) of dsGmolOBP7 or dsGFP was injected into the appropriate injection sites of each 5-day-old pupa, by using a PL1-100 Pico-Injector (Harvard Apparatus, Holliston, MA, USA) operated by an MP-255 Micromanipulator (Sutter, Novato, CA, USA). Each type of dsRNA was injected into 600 male and 600 female moths. The heads (with antenna) of 1-, 2-, 3-, and 4 day-old adults were dissected and immediately stored at −80°C prior to use. The total RNA and first-strand cDNA were obtained in accordance with previous methods. The specimens were used for qRT-PCR analysis to test the reduction in GmolOBP7 transcription. Experiments were performed with three biological replicates and three technical replicates.
EAG responses of dsRNA-injected (including dsGmolOBP7 and dsGFP) moths and non-injected controls, to sex pheromones and host plant volatiles were detected using Electroantennography. All stimulants were diluted with liquid paraffin to the final concentration of 10 mg/mL. Liquid paraffin and cis-3-hexenyl acetate were used as the blank and reference control, respectively. Both ends of adult antennae were cut and blocked with a drop of Spectra® 360 Electrode Gel (Parker Laboratories, Fairfield, USA). The basal section was connected to the reference electrode while the distal end was linked to the recording electrode. A filtered humidified air stream was delivered by a Syntech stimulus controller (CS55 model, Syntech, Germany) at a constant flow rate of 50 cm/s, and the time of stimuli flow was 0.5 s. Filter paper strips (0.6 cm × 4.5 cm) were dripped with 15 μL of chemical solution as a stimulus source and inserted into a 1.5 mL micropipet tip. A set of stimulants consisted of four sex pheromones and five host-plant volatiles which can be strongly bound with rGmolOBP7. Each antenna measured the group of randomly arranged stimulants described above. The antennae were stimulated one time with liquid paraffin and cis-3-hexenyl acetate and dissolved in solvent, before and after each group stimulation, in order to ensure the tested antenna were activated and the connecting pipe was not contaminated by stimulants. Recordings per stimulant were taken and the antennal responses were recorded. Eight male and female antennae were measured for each stimulant. The paired t-test was used to determine whether the difference in EAG values were significant between the dsRNA injected moths (dsGmolOBP7 and dsGFP) and the non-injected control. All the data were analyzed using SPSS 18.0 software (SPSS Inc., Chicago, IL, USA).

[4] = biological target: T1, rGmolOBP7 (recombinant GmolOBP7); test: Binding of fluorescence probe 1-NPN to rGmolOBP7 (binding curve, Scatchard plot); conditions: 2 μM protein in 20 mM Tris-HCl pH 7.4, 1-NPN up to 18 μM; read-out: dissociation constant (Kd) of 1-NPN
Description: as §1, with “solution. The binding affinity of rGmolOBP7 with 1-NPN was measured by adding aliquots of 1-NPN to a 2 μM protein solution (diluted with 20 mM Tris-HCl pH 7.4) to final concentrations of 0 to 18 μM.” for “solution.”
The corresponding florescence intensity values were collected as three independent measurements. The binding constant (K1−NPN) of 1-NPN to rGmolOBP7 was calculated using GraphPad Prism 5 software (GraphPad Software, Inc.) via nonlinear regression for a unique site of binding. The dissociation constant (Ki) of each ligands competitive binding to rGmolOBP7, were calculated from the corresponding IC50, by using the equation Ki = [IC50]/(1+[1-NPN]/K1−NPN), where [1-NPN] is the free concentration of 1-NPN, and K1−NPN is the dissociation constant of the complex protein/1-NPN.

[5] = 2 μM rGmolOBP7 and 2 μM 1-NPN, 20 mM Tris-HCl pH 7.4, room temperature, three independent measurements, read-out: IC50
[6] = calculated from IC50 by Ki = [IC50]/(1+[1-NPN]/K1-NPN), read-out: Ki

T1 sequence (A0A2R4SBC1 entry or part of it): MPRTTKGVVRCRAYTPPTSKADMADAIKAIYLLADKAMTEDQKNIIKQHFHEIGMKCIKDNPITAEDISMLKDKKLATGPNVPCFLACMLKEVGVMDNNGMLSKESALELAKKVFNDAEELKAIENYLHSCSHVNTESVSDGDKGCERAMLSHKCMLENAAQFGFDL

| Structure (SMILES) | IC50 [1, 5] | Ki [1, 6] | IC50 [1] | Ki [1] | further results |
| --- | --- | --- | --- | --- | --- |
| CCCCCCCCCCO [1-Decanol] | – | – | > 35 µM | > 35 µM | – |
| CCCCCCO [1-Hexanol] | – | 17.4 µM | 24.9 ± 1.28 µM | – | – |
| c1ccc(Nc2cccc3ccccc23)cc1 [1-NPN, N-phenyl-1-naphthylamine] | – | – | – | – | Kd [4]: 2.3 µM |
| CCCCCCCCCCCCCCO [1-Tetradecanol] | – | – | > 35 µM | > 35 µM | – |
| CCC/C=C/C=O [(E)-2-Hexenal] | – | – | 24.4 ± 1.53 µM | 17 µM | – |
| CC/C=C\CCO [(Z)-3-Hexen-1-ol] | – | – | 17.6 ± 0.52 µM | 12.3 µM | – |
| CCC/C=C\CCCCCCCOC(C)=O [(Z)-8-dodecenyl acetate] | – | – | – | – | EAG response of dsRNA-treated moths vs non-injected control [3]: not significantly different; binding to rGmolOBP7 (in words) [1]: did not bind |
| O=Cc1ccccc1 [Benzaldehyde] | – | – | 20.2 ± 0.27 µM | 14.1 µM | – |
| N#Cc1ccccc1 [Benzonitrile] | – | – | 17.9 ± 1.29 µM | 12.5 µM | – |
| OCc1ccccc1 [Benzyl alcohol] | – | – | > 35 µM | > 35 µM | – |
| CCCCOC(C)=O [Butyl acetate] | – | – | 18.1 ± 1.57 µM | 12.6 µM | – |
| CCCCCCC=O [Heptanal] | – | 10.9 µM | 15.7 ± 0.64 µM | – | – |
| CCCCCC=O [Hexanal] | – | – | 27.4 ± 1.59 µM | 19.1 µM | – |
| CCCCCCCCCCCC=O [Lauraldehyde] | 6.18 ± 0.43 µM | 4.31 µM | – | – | EAG response of dsRNA-treated moths vs non-injected control [3]: not significantly different |
| C=CC(C)(O)CCC=C(C)C (stereo not drawn) [Linalool] | – | – | 21.7 ± 1.11 µM | 15.1 µM | – |
| COC(=O)c1ccccc1O [Methyl salicylate] | – | – | 14.1 ± 0.22 µM | 9.81 µM | – |
| CC1=CCC2CC1C2(C)C (stereo not drawn) [α-Pinene] | – | – | 17.1 ± 1.2 µM | 11.9 µM | EAG response of dsRNA-treated moths vs non-injected control [3]: not significantly different |
| C=C1CC/C=C(\C)CC[C@@H]2[C@@H]1CC2(C)C [β-Caryophyllene] | – | – | > 35 µM | > 35 µM | – |

Now from value to molecule, other results behind:

| IC50 [1, 5] | Ki [1, 6] | Structure (SMILES) | IC50 [1] | Ki [1] | further results |
| --- | --- | --- | --- | --- | --- |
| > 35 µM | > 35 µM | C=CC(C)(O)CCC=C(C)CCC=C(C)C (mixture of isomers) [Nerolidol] | – | – | – |
| 10.7 ± 0.85 µM | 7.48 µM | CCCCCCCCCCCCO [1-Dodecanol] | – | – | EAG response of male antennae [2]: weak EAG response; EAG response of dsGmolOBP7-injected male moths vs dsGFP-injected and non-injected controls ([3]; 15 μL): significantly reduced; EAG response of dsGmolOBP7-injected male moths vs dsGFP-injected and non-injected controls ([3]; 15 μL, listed as 12:OH): significantly decreased |
| > 35 µM | > 35 µM | CCCCCCCCCCCCCCCCO [1-Hexadecanol] | – | – | – |
| > 35 µM | > 35 µM | C=C1[C@@H]2CC[C@@H](C2)C1(C)C [(-)-Camphene] | – | – | – |
| > 35 µM | > 35 µM | CCC/C=C/CCCCCCCOC(C)=O [(E)-8-dodecenyl acetate] | – | – | EAG response of dsRNA-treated moths vs non-injected control [3]: not significantly different; binding to rGmolOBP7 (in words) [1]: did not bind |
| 19.6 ± 0.27 µM | 13.7 µM | CC/C=C\CCOC(C)=O [(Z)-3-Hexenyl acetate] | – | – | EAG response of dsRNA-treated moths vs non-injected control [3]: not significantly different |
| > 35 µM | > 35 µM | CCC/C=C\CCCCCCCO [(Z)-8-dodecenyl alcohol] | – | – | EAG response of dsRNA-treated moths vs non-injected control [3]: not significantly different; binding to rGmolOBP7 (in words) [1]: did not bind |
| 16.3 ± 1.71 µM | 11.3 µM | CCCCOC(=O)CCC [Butyl butyrate] | – | – | – |
| 24.4 ± 0.77 µM | 17 µM | CCCCCC(=O)OCCCC [Butyl hexanoate] | – | – | – |
| 18.2 ± 1.27 µM | 12.7 µM | CCCCCCCCCC=O [Decanal] | – | – | – |
| > 35 µM | > 35 µM | CCC(C)=CCCC(C)=CC#N [Lemonile] | – | – | – |
| 18.7 ± 0.22 µM | 13 µM | CC/C=C\CC1C(=O)CCC1CC(=O)OC (stereo not drawn) [Methyl jasmonate] | – | – | – |
| > 35 µM | > 35 µM | CCCCCCCCCCCCCC(=O)OC [Methyl myristate] | – | – | – |
| > 35 µM | > 35 µM | CCCCCCCCCCCCCCCC(=O)OC [Methyl palmitate] | – | – | – |
| 28.6 ± 3.38 µM | 19.9 µM | CCCCCCCCC=O [Nonanal] | – | – | – |
| 3.62 ± 0.25 µM | 2.52 µM | CCCCC/C=C\C=C\C(=O)OCC [Pear ester, Ethyl (E, Z)-2,4-decadienate] | – | – | EAG response of dsGmolOBP7-injected female moths vs dsGFP-injected and non-injected controls ([3]; 1-day-old females, 15 μL): significantly reduced; also recorded: significantly decreased; EAG response of dsGmolOBP7-injected male moths vs dsGFP-injected and non-injected controls ([3]; 15 μL): significantly reduced; also recorded: significantly decreased |
| > 35 µM | > 35 µM | CCCCCCCCCCCCCC=O [Tetradecanal] | – | – | – |
| 11.1 ± 0.2 µM | 7.75 µM | C=C/C(C)=C/CCC(=C)C [α-Ocimene] | – | – | EAG response of dsRNA-treated moths vs non-injected control [3]: not significantly different |
